Measurements as given in US12448372B2, “Class of triaromatic compounds targeting bifunctional phosphorylation site of STAT3 and applications thereof” (SHANGHAI YUYAO BIOTECH LTD., priority 2019, dated 2025).
Where two headings read alike, the source gives them in different places.

Tests used:
[1] = target: STAT3 protein (Homo sapiens, UniProt P40763); assay: Binding activity to STAT3 protein by microscale thermophoresis (MST); settings: purified STAT3 recombinant protein
Source text: (1) Determination of Binding Activities of Compounds to STAT3 Protein by Microscale Thermophoresis (MST) Method
(§1) The microscale thermophoresis (MST) technique is a simple, rapid, and accurate method for quantifying biomolecular interactions. It can measure the movement of molecules in a microscopic temperature gradient field, as well as detect changes of molecular hydration shell, charge and size. When the Nanotemper microscale thermophoresis instrument locally heated by a infrared laser, molecules will move in a directional manner, then the molecular distribution ratio in the temperature gradient field are analyzed by a fluorescence to detect whether a small molecule compound binds to a target protein. The experimental operation is as follows: firstly, compounds to be tested are diluted in a gradient using MST test buffer, total 16 concentrations being configured; subsequently, the purified STAT3 recombinant protein is labeled using the HIS tag labeling kit, and the final concentration of the labeled protein is 100-200 nM; the labeled STAT3 proteins are well mixed with the diluted compounds and incubated and protected from light for 30 minutes; finally the samples were loaded by capillary tube and detected on the instrument. The binding constants (K^D) of small molecules to STAT3 protein were analyzed by Mo. analysis software.

[2] = system: Capan-2; assay: Cell proliferation by MTS method, Capan-2; type: cell-based
Source text: (§2) (2) Detection of Cell Proliferation by MTS Method
(§3) The MTS assay is a method for indirectly determining the number of living cells via colourimetric method. MTS is a newly synthesised tetrazole compound that reflects cell viability, which can be reduced by succinate dehydrogenase in the mitochondria of living cells to an orange-coloured formazan with an absorbance of the reduced product measured at 490 nm being in proportion to the number of living cells, thus reflecting the cell viability. This assay can be used to evaluate the effect of the compound on the proliferation of pancreatic cancer cells, thereby determining the inhibitory effect of the compound on the proliferation of pancreatic cancer cells and to calculate the IC^50. Each cells were inoculated uniformly into a 96-well plate at a density of 1-20×10^3 cells/well, 100 μL per well, and placed in a constant temperature incubator until the cells adhered to the wall. The control group was added with the corresponding medium and the experimental groups were given different concentrations of the compound prepared by the examples of the present invention, and the cells were taken out 24-96 h after administration for observing the cell state under a microscope. Under light-proof conditions, MTS was added and well mixed, the mixture was placed in a constant temperature incubator at 37° C., and the light absorption value were measured using an enzyme marker at 490 nm and the experiment was repeated for three times, IC50 was calculated with GraphPad5 Prism software.

[3] = system: MKN45; assay: Cell proliferation by MTS method, MKN45; type: cell-based; settings: Homo sapiens, MKN-45; Table 1, MKN45; read-out: Tumour cell proliferative activity/IC50(nM) gastric Cancer MKN45
Source text: as §2, §3

[4] = system: Huh7; assay: Cell proliferation by MTS method, Huh7; type: cell-based; settings: Homo sapiens, Huh-7; Table 1, Huh7; read-out: Tumour cell proliferative activity/IC50(nM) Liver Cancer Huh7
Source text: as §2, §3

[5] = system: HCC827; assay: Cell proliferation by MTS method, HCC827; type: cell-based; settings: Homo sapiens; Table 1, HCC827; read-out: Tumour cell proliferative activity/IC50(nM) Lung Cancer HCC827
Source text: as §2, §3

[6] = target: STAT3 SH2 domain (Homo sapiens, UniProt P40763); assay: Microscale thermophoresis binding to STAT3 SH2 domain; settings: MST, FIG. 5A; read-out: affinity for the STAT3 SH2 domain
STAT3 SH2 domain, sequence (P40763 580-670 limits assumed): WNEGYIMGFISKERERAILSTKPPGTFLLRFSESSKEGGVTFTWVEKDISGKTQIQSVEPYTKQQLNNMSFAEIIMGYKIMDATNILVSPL
Source text: as §1
(1) Microscale Thermophoresis Experiment
The method is as described in Example 40.

[7] = dose of 25 mg/kg, cited from earlier work
[8] = Homo sapiens, Table 1, Capan-2, read-out: Tumour cell proliferative activity/IC50(nM) Pancreatic Cancer Capan-2

STAT3 protein, sequence (P40763 whole entry): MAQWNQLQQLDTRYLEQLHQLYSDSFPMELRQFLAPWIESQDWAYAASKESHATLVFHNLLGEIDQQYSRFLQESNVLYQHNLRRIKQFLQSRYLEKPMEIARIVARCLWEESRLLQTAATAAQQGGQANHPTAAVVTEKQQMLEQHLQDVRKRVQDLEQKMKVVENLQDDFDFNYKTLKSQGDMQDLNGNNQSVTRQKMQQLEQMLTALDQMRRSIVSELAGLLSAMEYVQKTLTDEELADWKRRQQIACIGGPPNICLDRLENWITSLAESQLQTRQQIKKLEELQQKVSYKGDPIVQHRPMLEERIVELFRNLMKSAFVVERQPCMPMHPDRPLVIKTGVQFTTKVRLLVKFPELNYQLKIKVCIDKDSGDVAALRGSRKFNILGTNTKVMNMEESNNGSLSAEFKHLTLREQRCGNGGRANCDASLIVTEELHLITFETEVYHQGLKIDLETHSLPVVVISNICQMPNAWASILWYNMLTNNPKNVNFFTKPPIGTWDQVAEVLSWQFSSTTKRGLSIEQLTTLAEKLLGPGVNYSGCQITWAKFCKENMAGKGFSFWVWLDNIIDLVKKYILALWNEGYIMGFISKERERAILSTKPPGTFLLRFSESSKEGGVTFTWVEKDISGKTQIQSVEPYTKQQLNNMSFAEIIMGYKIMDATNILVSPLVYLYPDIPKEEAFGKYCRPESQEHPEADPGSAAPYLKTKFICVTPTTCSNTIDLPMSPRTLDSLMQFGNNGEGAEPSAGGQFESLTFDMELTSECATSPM

Structure (SMILES)	Kd [1] [µM]	IC50 [2, 8] [nM]	IC50 [3] [nM]	IC50 [4] [nM]	IC50 [5] [nM]	IC50 ([2]; Capan-2, FIG. 5B, read-out: IC50, inhibition of proliferation of pancreatic cancer cells) [nM]	Kd [6] [µM]	mortality in the mouse model ([7]; 25 mg/kg)	mortality in the mouse model ([7]; listed as IACS-101759, 25 mg/kg)
Cn1c(C(=O)N2CCN(Cc3cccc(OCC(F)(F)F)c3)CC2)cc2ccc(Oc3cnc(-c4nc(-c5ccc(C(F)(F)F)cc5)no4)cn3)cc21 [Example 32, (1-methyl-6-((5-(3-(4-(trifluoromethyl)phenyl)-1,2,4-oxadiazol-5-yl)pyrazin-2-yl)oxy)-1H-indol-2-yl)(4-(3-(2,2,2-trifluoroethoxy)benzyl)piperazin-1-yl)methanone]	< 0.1	< 100	< 100	< 100	< 100	–	–	–	–
Cn1c(C(=O)N2CCN(Cc3ccccc3OCC(F)(F)F)CC2)cc2ccc(Oc3cnc(-c4nc(-c5ccc(C(F)(F)F)cc5)no4)cn3)cc21 [Example 33, (1-methyl-6-((5-(3-(4-(trifluoromethyl)phenyl)-1,2,4-oxadiazol-5-yl)pyrazin-2-yl)oxy)-1H-indol-2-yl)(4-(2-(2,2,2-trifluoroethoxy)benzyl)piperazin-1-yl)methanone]	< 0.1	< 1000	< 1000	< 1000	< 1000	–	–	–	–
CN1CCN(C(=O)c2cc3ccc(Oc4cnc(-c5nc(-c6ccc(C(F)(F)F)cc6)no5)cn4)cc3n2C)CC1 [Example 34, (1-methyl-6-((5-(3-(4-(trifluoromethyl)phenyl)-1,2,4-oxadiazol-5-yl)pyrazin-2-yl)oxy)-1H-indol-2-yl)(4-methylpiperazin-1-yl)methanone]	< 0.1	< 1000	< 1000	< 1000	< 1000	–	–	–	–
CCN1CCN(C(=O)c2cc3ccc(Oc4cnc(-c5nc(-c6ccc(C(F)(F)F)cc6)no5)cn4)cc3n2C)CC1 [Example 35, (4-ethylpiperazin-1-yl)(1-methyl-6-((5-(3-(4-(trifluoromethyl)phenyl)-1,2,4-oxadiazol-5-yl)pyrazin-2-yl)oxy)-1H-indol-2-yl)methanone]	< 0.1	< 1000	< 1000	< 1000	< 1000	–	–	–	–
CCCN1CCN(C(=O)c2cc3ccc(Oc4cnc(-c5nc(-c6ccc(C(F)(F)F)cc6)no5)cn4)cc3n2C)CC1 [Example 36]	< 0.1	< 1000	< 1000	< 1000	< 1000	–	–	–	–
COC(=O)CN1CCN(C(=O)c2cc3ccc(Oc4cnc(-c5nc(-c6ccc(C(F)(F)F)cc6)no5)cn4)cc3n2C)CC1 [Example 37, Methyl 2-(4-(1-methyl-6-((5-(3-(4-(trifluoromethyl)phenyl)-1,2,4-oxadiazol-5-yl)pyrazin-2-yl)oxy)-1H-indol-2-carbonyl)piperazin-1-yl)acetate]	< 0.1	< 1000	< 1000	< 1000	< 1000	–	–	–	–
Cn1c(C(=O)N2CCN(C(=O)CCl)CC2)cc2ccc(Oc3cnc(-c4nc(-c5ccc(C(F)(F)F)cc5)no4)cn3)cc21 [Example 38, 2-chloro-1-(4-(1-methyl-6-((5-(3-(4-(trifluoromethyl)phenyl)-1,2,4-oxadiazol-5-yl)pyrazin-2-yl)oxy)-1H-indol-2-carbonyl)piperazin-1-yl)ethanone]	< 0.1	< 1000	< 1000	< 1000	< 1000	–	–	–	–
Cn1c(C(=O)N2CCN(C(=O)c3ccc(C(F)(F)F)cc3)CC2)cc2ccc(Oc3cnc(-c4nc(-c5ccc(C(F)(F)F)cc5)no4)cn3)cc21 [Example 39]	< 0.1	< 1000	< 1000	< 1000	< 1000	–	–	–	–
Cc1nc(-c2nc(-c3ccc(OC(F)(F)F)cc3)no2)nn1Cc1cccc(N2CCC(S(C)(=O)=O)CC2)c1 [IACS-010759, reference compound]	–	–	–	–	–	2.7	2.78	all mice in the administered group died	all mice died
